Data on two compounds can be found in patent US9128097B2, “Method and kit for assessing viable cells” (ChemoMetec A/S, priority 2008, dated 2015).

Format in all cases: cell-based
For test [1], the system named is Jurkat (A3) cells. In words: DACM staining of exponentially growing versus starved Jurkat cells. Conditions: viable cells (PI positive gated out); 2 days versus 10 days incubation. The protocol: Materials and Methods. Jurkat (A3) cells were grown in T flasks at 37° C. in a humidified air atmosphere with 5% CO2 in RPMI (Invitrogen, #61870) supplemented with 10% heat-inactivated fetal bovine serum (Invitrogen, #10108-165). To investigate the effect of cell starvation on DACM staining, exponentially proliferating cells from a newly split culture (2 days incubation) were investigated along with cells from a stationary culture (10 days incubation). 1.8 mL proliferating newly split Jurkat cells (cell density 3×10^5, 98% viable) were spun down and resuspended in 95 μL RPMI media and added 5 μL of a mixture of DACM (N-(7-dimethylamino-4-methyl-3-coumarinyl)-maleimide, WAKO Pure Chemical Industries, CAS no. 55145-14-7, 400 μg DACM pr. mL), acridine orange (1.2 μg/mL) and propidium iodide (500 μg/mL) and mixed by pipetting. Immediately after staining cells were loaded into a chamber slide. Images were captured using an in-house developed fluorescence microscope system with a Lumenera CCD camera (2× magnification) and were analysed using in-house developed software.

The test system of test [2] is Jurkat (A3) cells. In words: DACM / annexin V AF594 / SYTOX green staining of nocodazole treated Jurkat cells. The protocol:
Materials and Methods. Jurkat (A3) cells were grown in T flasks at 37° C. in a humidified air atmosphere with 5% CO2 in RPMI (Invitrogen, #61870) supplemented with 10% heat-inactivated fetal bovine serum (Invitrogen, #10108-165). In order of investigating the effect of an apoptosis-inducing drug on DACM staining, Jurkat cells were treated with nocodazole (0.5 μM) for 16 hours. Nocodazole treated and untreated control cells were harvested washed and stained with annexin V Alexa Fluor 594 (Invitrogen, #A13203) according to manufacturer's instructions. Then cells were stained with DACM (20 μg/mL) (N-(7-dimethylamino-4-methyl-3-coumarinyl)-maleimide, WAKO Pure Chemical Industries, CAS no. 55145-14-7) and the nonviable stain SYTOX green (0.3 μM) (Invitrogen, #S7020). Immediately after staining with DACM cells were loaded into a chamber slide. The cells were investigated using an Olympus IX50 fluorescence microscope, and images (40× magnification) of the Annexin V Alexa Fluor 594, DACM and SYTOX green stained cells were captured using a Lumenera CCD camera combined with the following filter cubes (Olympus); U-MWG2 (green long pass: 510-550 nm), U-MNUA2 (UV band pass, 330-385 nm) and U-MNIB3 (blue band pass: 470-495 nm). Cells were also investigated using an in-house developed fluorescence microscope system with 2× magnification.

The next test relates to Jurkat (JM) cells. In words: Staining of proliferating Jurkat cells with labelling agent and propidium iodide, fluorescence microscopy. Conditions: 10 μL agent (100 μg pr. mL DMSO) added to 90 μL cells, only exception PI positive cells. The protocol: (§1) Materials and Methods. Jurkat (JM) cells were grown at 37° C. in a humidified air atmosphere with 5% CO2 in RPMI (Invitrogen, #61870) supplemented with 10% heat-inactivated fetal bovine serum (Invitrogen, #10108-165). 90 μL proliferating Jurkat cells (cell density 1.2×10^6, 99% viable determined using the NC-100 NucleoCounter system following the manufacturer's (ChemoMetec A/S) protocol) were added 10 μL NAM (N-(9-acridinyl)maleimide, Sigma, #01665, CAS no. 49759-20-8) dissolved in DMSO (100 μg NAM pr. mL DMSO) and mixed by pipetting. Cells were loaded into a NucleoCassette, containing the DNA stain propidium iodide (PI). The cells were investigated using an Olympus IX50 fluorescence microscope, and images were captured using a Lumenera CCD camera and in-house developed software. PI and NAM fluorescence were detected using, respectively, U-MWG2 (green long pass: 510-550 nm) and U-MNUA2 (UV band pass, 330-385 nm) filter cubes (Olympus).
as §1, with “1.0×10^6,” for “1.2×10^6,”, “(ChemoMetec)” for “(ChemoMetec A/S)”, “CPM (7-diethylamino-3-[4′-maleimidylphenyl]-4-methylcoumarin, Chemodex Ltd.,” for “NAM (N-(9-acridinyl)maleimide, Sigma, #01665,”, “76877-33-3)” for “49759-20-8)”, “CPM” for “NAM”
as §1, with “1.1×10^6, 98%” for “1.2×10^6, 99%”, “(ChemoMetec)” for “(ChemoMetec A/S)”, “PM (N-(1-Pyrenyl)maleimide, Sigma P7908” for “NAM (N-(9-acridinyl)maleimide, Sigma, #01665,”, “42189-56-0)” for “49759-20-8)”, “PM” for “NAM”, “Cells were loaded into a NucleoCassette, containing the DNA stain propidium iodide (PI).” left out
Materials and Methods. […] 90 μL proliferating Jurkat cells (cell density 1.1×10^6, 98% viable determined using the NC-100 NucleoCounter system following the manufacturer's (ChemoMetec) protocol) were added 10 μL CPI (7-diethylamino-3-((4′-(iodoacetyl)amino)phenyl)-4-methylcoumarin, Sigma 78264 CAS no. 76877-34-4) dissolved in DMSO (100 μg CPI pr. mL DMSO) and mixed by pipetting. […] The cells were investigated using an Olympus IX50 fluorescence microscope, and images were captured using a Lumenera CCD camera and in-house developed software. PI and CPI fluorescence were detected using, respectively, U-MWG2 (green long pass: 510-550 nm) and U-MNUA2 (UV band pass, 330-385 nm) filter cubes (Olympus). […]

The test system of another test is S. cerevisiae. In words: DACM/PI staining of yeast, fluorescence microscopy. The conditions noted are these: 8 μg/ml DACM, no incubation. The protocol: (§2) Materials and Methods. S. pombe strain Eg328, h^90 smt-0 ura4-D18, (ATCC 90720; Styrkarsdottir U et al. Curr. Genet. 23: 184-186, 1993) was grown in a rotary shaker at 29° C. to a density of 1×10^7 cells/ml in EMM minimal medium (Moreno et al., Methods Enzym. 194: 795-823, 1991) supplemented with 10 mM of L-uridine (Sigma, U3750). S. cerevisiae wild strain was cultivated in YPD medium (Qbiogene, #4001-032) at 29° C. to a density of 5×10^7 cells/ml. S. pombe and S. cerevisiae cells were directly stained with 8 μg/ml DACM (N-(7-dimethylamino-4-methyl-3-coumarinyl)-maleimide, WAKO Pure Chemical Industries, CAS no. 55145-14-7 dissolved in DMSO) and 10 μg/ml propidium iodide (Applichem, #A2261.9010) prior to mounting on a microscope slide. Note: after addition of DACM and PI the cells were immediately analysed for fluorescence (no incubation). Olympus IX50 and NucleoCounter® NC3000™ was used for microscopy, and images were captured using a Lumenera CCD camera and in-house developed software. Propidium iodide and DCAM fluorescence were detected using the U-MWG2 and U-MNUA2 filter cubes of the Olympus microscope and filterset 5 and 1 of the NucleoCounter® NC-3000™.

For another test, the system named is S. pombe. Put plainly: DACM/PI staining of yeast, fluorescence microscopy. Conditions: 8 μg/ml DACM, no incubation. The protocol:
as §2

The test system of the next test is Jurkat cells. Put plainly: JC-1 mitochondrial potential detection apoptosis assay. The conditions noted are these: nocodazole treated Jurkat cells. The text has this:
FIG. 22 The effect of the apoptotic drug nocodazole on the fluorescence intensity of stained Jurkat cells. 22A+22B) Fluorescence intensity of DACM stained untreated (22A) or nocodazole treated (22B) Jurkat cells. […] 22C+22D) Red vs. green fluorescence of JC-1 stained untreated (22C) and nocodazole treated (22D) Jurkat cells. The JC-1 stain is used for detecting apoptosis. JC-1 form red fluorescing aggregates in the mitochondria of healthy, non-apoptotic cells. In apoptotic cells JC-1 appears in its green monomeric, reduced form. […] This is in accordance with the results obtained using DACM to measure the thiol level; treatment with nocodazole causes a decrease in the fluorescence intensity of a subpopulation of cells.

In the case of `Cc1c(N2C(=O)C=CC2=O)c(=O)oc2cc(N(C)C)ccc12` [DACM, N-(7-dimethylamino-4-methyl-3-coumarinyl)-maleimide], in the test with Jurkat (A3) cells [1], the “DACM fluorescence intensity, healthy versus starved cells” value is “higher for healthy (exponential growing) Jurkat cells than the starved Jurkat cells”. Besides, the “DACM fluorescence intensity of viable, non-apoptotic cells” value in the test on Jurkat (A3) cells [2] (DACM 20 μg/mL) is listed as “highest fluorescence intensity”. The “DACM fluorescence intensity of nonviable cells” value with Jurkat (A3) cells [2] (SYTOX green positive cells, DACM 20 μg/mL) is reported as “low fluorescence intensity”. Further, the “DACM fluorescence intensity of apoptotic cells” value with Jurkat (A3) cells [2] (annexin V positive cells, DACM 20 μg/mL) is given as “low fluorescence intensity”. The “staining of cells (UV filter) versus PI positive cells” value in the test on Jurkat (JM) cells is “nearly all cells were stained by DACM”. Besides, the “staining of non-viable PI positive cells” value with S. cerevisiae and in the test on S. pombe was “stain very weakly with DACM” each time. In addition, the “staining of viable PI negative cells” value with S. cerevisiae and with S. pombe was “stain brightly with DACM” throughout.

In the case of `COC(=O)Nc1nc2ccc(C(=O)c3cccs3)cc2[nH]1` [nocodazole], the “overall DACM fluorescence intensity (thiol level) of treated cells versus untreated” value in the test with Jurkat (A3) cells [2] (nocodazole 0.5 μM for 16 hours) is reported as “lower than the overall fluorescence intensity of untreated Jurkat cells”. Further, the “induction of apoptosis (mitochondrial depolarisation, JC-1 red/green fluorescence)” value in the test on Jurkat cells is given as “induces apoptosis (measured as depolarisation) in a cell subpopulation”.
